Results taken from patent US20130172360A1, “DERIVATIVES OF AZAINDAZOLE OR DIAZAINDAZOLE TYPE AS MEDICAMENT” (PIERRE FABRE MEDICAMENT, priority 2011, published 2013).

Tests used:
ALK [1] = molecular target: T1, ALK (Homo sapiens, UniProt Q9UM73); assay: Test for measuring inhibition of ALK kinase (GST-PLCγ1 substrate, anti-phosphotyrosine ELISA, luminescence); assay type: biochemical; settings: 250 μM ATP, 30 minutes at 30° C.; read-out: Enzymatic inhibition of ALK (IC50)
Protocol: Test for Measuring Inhibition of ALK Kinase:
A ViewPlate microplate (Packard) is incubated with 0.1 mg/ml GST-PLCγ1 substrate (purified recombinant form) in phosphate buffer (PBS, pH 7.4) (100 μl/well) for one hour under stirring. The plate is then saturated with blocking solution comprising 5% bovine serum albumin (BSA) (Sigma) in PBS buffer, pH 7.4.
After having added a compound according to the invention to the desired final concentration (typical range between 30 μM and 10 nM), the reaction is carried out by adding 180 ng/ml ALK to a reaction buffer comprised of 13 mM Tris, pH 7.5 (Sigma); 6.5 mM MgCl2 (Merck); 0.65 mM dithiothreitol (DTT) (Acros); 39 mM sodium ([…] (TCI); 0.65 mM sodium orthovanadate (Sigma); and 250 μM ATP (Sigma). Incubation is carried out for 30 minutes at 30° C. under stirring.
After three washings under stirring in 0.1% PBS/Tween-20 buffer (Sigma), an anti-phosphotyrosine antibody, coupled with HRP (UBI) diluted to 1/1000 in 5 mg/ml PBS/BSA buffer, is incubated for one hour with stirring. After three new washings in 0.1% PBS/Tween-20, the wells are incubated for two minutes with […] of SuperSignal ELISA mixture (Pierce).
The signal is read in luminescence mode using a luminometer (SpectraMax M5e, Molecular Devices).
IC50s are determined by nonlinear regression on the basis of a sigmoidal dose/response relationship model, wherein the Hill coefficient is left variable, carried out on the GraphPad software package according to the algorithm provided.

[2] = system: human anaplastic large-cell lymphoma (ALCL) tumor model; assay: In vivo antitumor activity, ALCL tumors grafted subcutaneously in mice, oral daily dosing; settings: mice with subcutaneous ALCL tumors, daily schedule; for adverse effects: animals weighed several times per week; for inhibition of ALCL tumor growth: corresponds to complete regression of the tumors
Protocol: Pharmacological Activity In Vivo
The compounds were administered orally at various doses on a daily schedule to mice with ALCL tumors grafted subcutaneously. Tumor size was measured regularly during the study and the animals were weighed several times per week in order to identify any adverse effects. A compound is declared active if it induces inhibition of ALCL tumor growth by at least 58%.

ALK [3] = molecular target: T1, ALK; assay: Inhibition of a panel of kinases (Millipore): ALK; assay type: biochemical; settings: Millipore kinase panel; read-out: Enzyme inhibition (IC50, nM) ALK
Source text: (§1) Test for Measuring Inhibition of a Panel of Kinases:
(§2) These kinases are produced by Millipore and are screened according to the manufacturer's protocols.

Abl = molecular target: T2, Abl (Homo sapiens, UniProt P00519); assay: Inhibition of a panel of kinases (Millipore): Abl; assay type: biochemical; settings: Millipore kinase panel; read-out: Enzyme inhibition (IC50, nM) Abl
T2 construct: purchased Millipore
Source text: as §1, §2

c-Src = molecular target: T3, c-Src (Homo sapiens, UniProt P12931); assay: Inhibition of a panel of kinases (Millipore): c-Src; assay type: biochemical; settings: Millipore kinase panel; read-out: Enzyme inhibition (IC50, nM) c-Src
T3 construct: purchased Millipore
Source text: as §1, §2

[4] = system: Karpas 299 cells (human anaplastic large-cell lymphoma); assay: Test for measuring inhibition of cell (Karpas 299) proliferation (ATPlite); assay type: cell-based; settings: 72 hours
Protocol: Test for Measuring Inhibition of Cell (Karpas 299) Proliferation:
The antiproliferative activities of the compounds according to the invention were measured by the ATPlite technique (Perkin Elmer).
Nonadherent human anaplastic large-cell lymphoma cells (Karpas 299) are inoculated in 96-well plates (300,000 cells/ml) at day 1, at a concentration compatible with logarithmic growth for the 72 hours required for the evaluation of the compounds. All of the cells are treated at day 1 and then placed in an incubator at 37° C. under an atmosphere of 5% CO2. Cell viability is evaluated at day 4 by assaying released ATP, which is characteristic of viable cells. IC50s are determined by nonlinear regression on the basis of a sigmoidal dose/response relationship model, wherein the Hill coefficient is left variable, carried out on the GraphPad software package according to the algorithm provided.

T1 sequence (Q9UM73 19-1620): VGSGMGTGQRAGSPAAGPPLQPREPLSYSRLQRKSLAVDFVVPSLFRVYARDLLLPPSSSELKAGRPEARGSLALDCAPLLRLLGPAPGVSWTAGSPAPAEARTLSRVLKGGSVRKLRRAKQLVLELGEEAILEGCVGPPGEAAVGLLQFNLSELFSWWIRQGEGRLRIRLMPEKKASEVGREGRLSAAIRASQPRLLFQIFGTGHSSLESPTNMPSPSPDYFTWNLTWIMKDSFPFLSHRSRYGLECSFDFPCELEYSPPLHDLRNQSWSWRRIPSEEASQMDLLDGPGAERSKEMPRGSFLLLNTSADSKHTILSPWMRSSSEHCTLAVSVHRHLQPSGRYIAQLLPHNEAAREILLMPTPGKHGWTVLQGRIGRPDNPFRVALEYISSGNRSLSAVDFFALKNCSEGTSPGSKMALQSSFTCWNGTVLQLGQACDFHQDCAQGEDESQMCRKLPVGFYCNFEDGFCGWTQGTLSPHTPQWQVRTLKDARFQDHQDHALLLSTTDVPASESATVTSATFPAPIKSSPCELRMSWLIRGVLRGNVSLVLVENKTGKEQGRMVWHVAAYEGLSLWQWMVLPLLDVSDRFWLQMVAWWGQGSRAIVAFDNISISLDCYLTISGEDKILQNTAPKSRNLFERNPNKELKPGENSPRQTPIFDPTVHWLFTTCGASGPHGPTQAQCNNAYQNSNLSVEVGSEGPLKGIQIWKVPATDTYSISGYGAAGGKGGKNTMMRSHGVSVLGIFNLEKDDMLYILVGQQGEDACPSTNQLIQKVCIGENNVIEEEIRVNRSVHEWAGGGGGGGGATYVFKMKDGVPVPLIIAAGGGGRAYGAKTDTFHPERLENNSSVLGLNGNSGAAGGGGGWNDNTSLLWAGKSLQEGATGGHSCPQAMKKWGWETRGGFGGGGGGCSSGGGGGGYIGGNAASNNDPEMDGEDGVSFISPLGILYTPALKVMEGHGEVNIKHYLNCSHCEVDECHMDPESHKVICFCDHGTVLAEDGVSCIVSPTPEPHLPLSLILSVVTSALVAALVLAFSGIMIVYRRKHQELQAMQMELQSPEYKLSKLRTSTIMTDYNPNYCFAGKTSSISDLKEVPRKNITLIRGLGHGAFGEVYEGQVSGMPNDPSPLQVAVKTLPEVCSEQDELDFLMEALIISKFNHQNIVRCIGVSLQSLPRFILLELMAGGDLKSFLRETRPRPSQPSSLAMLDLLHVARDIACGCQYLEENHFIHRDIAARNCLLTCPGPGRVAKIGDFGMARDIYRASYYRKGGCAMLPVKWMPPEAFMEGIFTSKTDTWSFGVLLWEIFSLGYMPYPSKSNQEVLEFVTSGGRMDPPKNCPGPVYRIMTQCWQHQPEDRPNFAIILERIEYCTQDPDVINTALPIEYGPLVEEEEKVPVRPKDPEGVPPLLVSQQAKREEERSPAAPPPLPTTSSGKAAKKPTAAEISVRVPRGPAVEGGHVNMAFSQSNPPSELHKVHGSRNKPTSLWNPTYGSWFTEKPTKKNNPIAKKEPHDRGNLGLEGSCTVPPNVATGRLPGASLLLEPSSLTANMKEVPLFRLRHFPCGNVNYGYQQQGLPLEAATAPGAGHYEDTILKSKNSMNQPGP
T3 sequence (P12931 whole entry): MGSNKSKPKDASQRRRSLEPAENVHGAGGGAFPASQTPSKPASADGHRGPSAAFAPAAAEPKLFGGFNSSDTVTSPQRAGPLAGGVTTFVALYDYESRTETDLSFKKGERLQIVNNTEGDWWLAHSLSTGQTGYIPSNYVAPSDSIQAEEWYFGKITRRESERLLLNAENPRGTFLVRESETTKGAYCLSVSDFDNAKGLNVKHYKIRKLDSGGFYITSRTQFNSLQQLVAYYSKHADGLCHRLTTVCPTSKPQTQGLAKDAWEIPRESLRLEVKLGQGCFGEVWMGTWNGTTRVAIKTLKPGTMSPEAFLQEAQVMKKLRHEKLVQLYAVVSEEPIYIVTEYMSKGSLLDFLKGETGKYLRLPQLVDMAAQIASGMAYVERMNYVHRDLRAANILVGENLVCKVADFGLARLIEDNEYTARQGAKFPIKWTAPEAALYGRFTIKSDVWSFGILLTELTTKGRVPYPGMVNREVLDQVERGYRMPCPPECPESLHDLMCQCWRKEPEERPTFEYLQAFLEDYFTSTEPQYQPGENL
T2 sequence (P00519 whole entry, species assumed): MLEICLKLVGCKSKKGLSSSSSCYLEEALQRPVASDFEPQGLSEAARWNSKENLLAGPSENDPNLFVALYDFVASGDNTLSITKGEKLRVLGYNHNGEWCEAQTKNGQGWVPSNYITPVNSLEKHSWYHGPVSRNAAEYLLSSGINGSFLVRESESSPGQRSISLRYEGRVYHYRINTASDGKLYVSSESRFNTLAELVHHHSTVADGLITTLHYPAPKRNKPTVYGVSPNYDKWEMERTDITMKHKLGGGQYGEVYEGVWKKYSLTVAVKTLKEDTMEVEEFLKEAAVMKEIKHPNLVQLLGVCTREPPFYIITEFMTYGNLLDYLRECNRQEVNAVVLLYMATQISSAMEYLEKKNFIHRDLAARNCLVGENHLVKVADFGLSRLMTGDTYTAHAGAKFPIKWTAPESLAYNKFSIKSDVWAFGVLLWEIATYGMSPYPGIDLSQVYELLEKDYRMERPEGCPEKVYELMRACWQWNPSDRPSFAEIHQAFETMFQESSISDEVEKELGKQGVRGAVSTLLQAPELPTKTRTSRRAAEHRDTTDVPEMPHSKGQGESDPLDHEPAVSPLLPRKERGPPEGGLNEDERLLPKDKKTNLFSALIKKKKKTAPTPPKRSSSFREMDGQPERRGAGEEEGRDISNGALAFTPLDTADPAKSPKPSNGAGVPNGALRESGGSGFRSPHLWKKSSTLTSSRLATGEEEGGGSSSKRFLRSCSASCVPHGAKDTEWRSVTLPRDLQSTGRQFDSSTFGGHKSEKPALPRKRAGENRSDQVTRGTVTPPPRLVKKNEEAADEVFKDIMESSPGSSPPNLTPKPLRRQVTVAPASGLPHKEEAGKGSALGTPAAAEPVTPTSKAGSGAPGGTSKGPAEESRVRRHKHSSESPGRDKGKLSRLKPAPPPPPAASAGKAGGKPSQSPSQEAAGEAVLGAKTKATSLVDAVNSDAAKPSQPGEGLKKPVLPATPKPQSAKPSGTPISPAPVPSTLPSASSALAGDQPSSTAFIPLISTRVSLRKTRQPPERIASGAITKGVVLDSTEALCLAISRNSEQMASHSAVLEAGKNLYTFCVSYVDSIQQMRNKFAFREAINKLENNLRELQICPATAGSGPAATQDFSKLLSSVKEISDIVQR

Compound | IC50 (ALK [1]) [nM] | IC50 (ALK [3]) [nM] | IC50 (Abl) [nM] | IC50 (c-Src) [nM] | IC50 [4] [nM] | adverse effects [2] | inhibition of ALCL tumor growth [2] [%]
CN1CCN(c2ccc(C(=O)Nc3n[nH]c4ncc(Sc5ccccc5C(N)=O)cc34)c(NC3CCOCC3)c2)CC1 [Example 30-1, N-(5-(2-carbamoylphenylthio)-1H-pyrazolo[3,4-b]pyridin-3-yl)-4-(4-methylpiperazin-1-yl)-2-(tetrahydro-2H-pyran-4-ylamino)benzamide] | 20 |  |  |  | 2200 |  | 
CN1CCN(c2ccc(C(=O)Nc3n[nH]c4ncc(Sc5cc(F)cc(F)c5)cc34)c(NC3CCOCC3)c2)CC1 [Example 30, N-(5-(3,5-difluorophenylthio)-1-H-pyrazolo[3,4-b]pyridine-3-yl)-4-(4-methylpiperazine-1-yl)-2-(tetrahydro-2H-pyran-4-ylamino)benzamide] | 1 | 7 | 18 | 4 | 160 | no adverse effects | 100
CN1CCN(c2ccc(CNc3n[nH]c4ncc(Sc5cc(F)cc(F)c5)cc34)cc2)CC1 [Example 28, 5-(3,5-difluorophenylthio)-N-(4-(4-methylpiperazin-1-yl)benzyl)-1H-pyrazolo[3,4-b]pyridin-3-amine] | 36 |  |  |  |  |  | 

Continued, in another order:

IC50 (ALK [1]) [nM] | IC50 (ALK [3]) [nM] | IC50 (Abl) [nM] | IC50 (c-Src) [nM] | IC50 [4] [nM] | Compound | adverse effects [2] | inhibition of ALCL tumor growth [2] [%]
1 | 15 | 38 | 9 |  | CN1CCN(c2ccc(C(=O)Nc3n[nH]c4ncc(Cc5cc(F)cc(F)c5)cc34)c(NC3CCOCC3)c2)CC1 [Example 30-9, N-(5-(3,5-difluorobenzyl)-1H-pyrazolo[3,4-b]pyridin-3-yl)-4-(4-methylpiperazin-1-yl)-2-(tetrahydro-2H-pyran-4-ylamino)benzamide] | no adverse effects | 100
66 |  |  |  | 2600 | COc1nc2[nH]nc(NC(=O)c3ccc(N4CCN(C)CC4)cc3NC3CCOCC3)c2cc1Sc1cc(F)cc(F)c1 [Example 30-5, N-(5-(3,5-difluorophenylthio)-6-methoxy-1H-pyrazolo[3,4-b]pyridin-3-yl)-4-(4-methylpiperazin-1-yl)-2-(tetrahydro-2H-pyran-4-ylamino)benzamide] |  | 
17 |  |  |  | 830 | CN1CCN(c2ccc(C(=O)Nc3n[nH]c4ncc(CCc5cc(F)cc(F)c5)cc34)c(NC3CCOCC3)c2)CC1 [Example 31, N-(5-(3,5-difluorophenethyl)-1H-pyrazolo[3,4-b]pyridin-3-yl)-4-(4-methylpiperazin-1-yl)-2-(tetrahydro-2H-pyran-4-ylamino)benzamide] |  | 
